The target in test [1] is T1, Ubiquitin carboxyl-terminal hydrolase 7 (Homo sapiens, UniProt Q93009). As to the kind of experiment: Inhibition of N-terminal His-tagged USP7 catalytic domain (208 to 554 residues) (unknown origin) by TR-FRET assay. A general note: In TR-FRET formats the signal depends on donor and acceptor labels being close together.
Test [2] deals with T1, Ubiquitin carboxyl-terminal hydrolase 7. Description: Binding affinity to USP7 catalytic domain human USP7 (208 to 560 residues) (unknown origin) extracted from Escherichia coli assessed as dissociation constant.
The target is the same in test [3]. Description: Inhibition of USP7 catalytic domain human USP7 (208 to 560 residues) (unknown origin) extracted from Escherichia coli.
Test [4] shares this target. Description: Inhibition of full length USP7 (unknown origin).

Structures are written as SMILES.

T1 sequence (Q93009 whole entry, the tested form may be a part): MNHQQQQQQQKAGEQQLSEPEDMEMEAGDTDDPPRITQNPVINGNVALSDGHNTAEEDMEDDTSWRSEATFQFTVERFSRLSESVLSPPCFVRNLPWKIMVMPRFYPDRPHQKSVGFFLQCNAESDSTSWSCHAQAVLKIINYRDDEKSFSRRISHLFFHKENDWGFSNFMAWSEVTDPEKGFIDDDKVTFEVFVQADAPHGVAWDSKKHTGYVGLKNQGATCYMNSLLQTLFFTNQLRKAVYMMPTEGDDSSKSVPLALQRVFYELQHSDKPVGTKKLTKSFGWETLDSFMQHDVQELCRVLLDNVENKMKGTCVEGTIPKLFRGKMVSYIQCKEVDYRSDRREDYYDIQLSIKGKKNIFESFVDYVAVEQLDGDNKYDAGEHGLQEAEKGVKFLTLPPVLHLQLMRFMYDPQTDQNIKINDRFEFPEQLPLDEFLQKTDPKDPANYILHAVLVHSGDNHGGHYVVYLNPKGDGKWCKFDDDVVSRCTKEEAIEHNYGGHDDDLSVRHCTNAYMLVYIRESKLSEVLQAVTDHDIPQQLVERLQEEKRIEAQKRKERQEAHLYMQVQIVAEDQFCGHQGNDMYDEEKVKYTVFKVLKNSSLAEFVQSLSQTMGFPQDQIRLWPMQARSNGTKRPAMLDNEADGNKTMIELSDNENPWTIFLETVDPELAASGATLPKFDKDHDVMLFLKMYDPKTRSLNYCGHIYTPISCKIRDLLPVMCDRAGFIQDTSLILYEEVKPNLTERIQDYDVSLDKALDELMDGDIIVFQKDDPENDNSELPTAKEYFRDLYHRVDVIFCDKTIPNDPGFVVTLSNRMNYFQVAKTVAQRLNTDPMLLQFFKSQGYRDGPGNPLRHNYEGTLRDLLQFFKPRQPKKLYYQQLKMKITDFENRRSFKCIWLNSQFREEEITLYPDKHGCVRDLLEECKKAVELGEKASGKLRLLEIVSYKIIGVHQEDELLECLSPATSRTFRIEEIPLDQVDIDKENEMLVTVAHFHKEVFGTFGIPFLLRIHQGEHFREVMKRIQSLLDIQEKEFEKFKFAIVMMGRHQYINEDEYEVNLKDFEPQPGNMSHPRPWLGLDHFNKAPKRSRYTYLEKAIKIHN

A word on the IC50: it is the concentration that inhibits the measured activity by half. Read a high IC50 as a need for much substance. `CCc1c(-c2ccc(C(=O)NC)nc2)cnc(N)c1-c1ccc(O)cc1`: the IC50 in test [1] was 0.61 µM.
By Kd is commonly meant the constant that tells how readily two partners part at equilibrium. Regarding `O=C(C[C@@H](C(F)F)n1ccc(F)n1)N1CCC(O)(Cn2cnc3c(cnn3-c3ccc(F)cc3)c2=O)CC1`, in test [2], the Kd is 0.065 µM. The same molecule registered an IC50 in test [3] of 52 µM.
Take `O=C(CCc1ccccc1)N1CCC(O)(Cn2cnc3cc(Cl)ccc3c2=O)CC1`: the 50% inhibitory concentration (IC50) in test [4] was 10.2 µM. This lies in the double-digit micromolar range.

The values are drawn from ChEMBL document CHEMBL6109175, “Ubiquitin-Specific Protease 7 (USP7) as a Promising Therapeutic Target for Drug Discovery: From Mechanisms to Therapies” (J Med Chem, 2025).
